experiment: gradient 5% acetonitrile 3 min, to 50% in 2 min, to 85% in 15 min, held 3 min, 100 µL/min; details: column: Zorbax Extend-C18 2.1 x 50 mm; eluents: water / acetonitrile, 0.1% formic acid
How it was run: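 Standards, all pure, were combined into mixtures of ~100 molecules and run at 100 μL/min on a Zorbax Extend-C18 column (2.1 × 50 mm, 1.8 μm) with water and acetonitrile, each containing 0.1% formic acid. A coupled quadrupole time-of-flight mass spectrometer operated in positive and negative ionization mode. Retention time values come from computationally picked adduct peaks, each inspected manually.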

Point of comparison: `O=c1c2cc(-c3ccc(F)cc3)nn2cnn1Cc1nc(-c2ccc(Br)cc2)no1`, RP-LC retention time 1210 s. Against it:
- CCCS(=O)(=O)N1CC(=O)N(c2ccccc2F)C(C)(C(=O)NC2CCCCCCC2)C1 (stereo not given) — lower, 997 s
- CCc1noc(CN2N=C(C(=O)N3CCC(C)CC3)S(=O)(=O)c3ccc(C)cc32)n1 — lower, 954 s
- CC(=O)N1CCCC(c2nc(CCNC(=O)C3CCC3)cs2)C1 (stereo not given) — lower, 625 s
- COc1ccc(OCC(=O)NS(=O)(=O)c2ccccc2)cc1 — lower, 745 s
- Cc1nnc(-c2cc(NC(=O)Cc3c[nH]c4ccccc34)c(C)s2)o1 — lower, 794 s
- CCOC(=O)c1ccc(NC(=O)Cn2cnc3nc(N4CCCC4)ncc3c2=O)cc1 — lower, 753 s
- Cc1cc(NC(=O)C2CCN(C(=O)C3(c4cccs4)CCCC3)CC2)no1 — lower, 800 s
- Cc1ccc(F)c(NC(=O)C2CC(=O)N(c3ccc4oc(C)nc4c3)C2)c1 (stereo not given) — lower, 753 s
- O=C(C1CCC1)N1[C@H]2CC[C@@H]1c1cnc(-c3ccccc3)nc1C2 — lower, 876 s
- Cc1cc(F)cc2c(=O)c3c([nH]c12)CCN(CC(=O)Nc1cc(F)cc(F)c1)C3 — lower, 635 s
- COc1c(C(=O)NC(C)C)sc2ccc(F)cc12 — lower, 952 s
- Cc1nnn(C23CC4CC(CC(C(=O)N5CCN(c6ccccn6)CC5)(C4)C2)C3)n1 — lower, 597 s
- O=C(c1cccc(OCC2CCCN(C(=O)C3CCCO3)C2)c1)N1CCCCC1 (stereo not given) — lower, 750 s
- CCC(C)NC(=O)C1CCCN(c2nccnc2Sc2ccc(C)cc2)C1 (stereo not given) — higher, 1320 s
- CCCNC(=O)N1CC(Oc2cccc(-c3nc(C)no3)c2)C1 — lower, 730 s
- CC(C)N1CCn2cc(S(=O)(=O)Nc3cc(F)cc(F)c3)cc2C1=O — lower, 794 s
- C=CCN1C(=O)COc2ccc(-c3nc(NC(=O)C(C)(C)C)sc3C)cc21 — lower, 1010 s
- COc1ccc(OC)c(S(=O)(=O)N2CCCC(C)(C(=O)NCc3ccc(F)cc3)C2)c1 (stereo not given) — lower, 916 s
- CCOc1ccc(NC(=O)N2CCN(c3cc(C)nc(Nc4ccc(C)cc4)n3)CC2)cc1 — lower, 727 s
- Cc1cc2[nH]c(C(=O)Nc3cc(F)ccc3F)c(CN3CCOCC3)c2s1 — lower, 730 s
- COc1cc(-c2nc3ncccn3c2Nc2ccc(C)cc2C)ccc1O — lower, 682 s
- CCOC(=O)c1nc(NCCCN2CCN(c3ccc(F)cc3)CC2)c2ccccc2n1 — lower, 647 s
- Cc1cc(C)cc(NC(=O)CN2CCN(Cc3ccc(F)cc3)C(=O)C2=O)c1 — lower, 798 s
- CCN1C(=O)c2cc(S(=O)(=O)Nc3cc(F)cc(F)c3)ccc2Oc2cccnc21 — lower, 1040 s
- N#Cc1cccc(C(=O)NC2(c3nc(-c4ccncc4)no3)CCCCC2)c1 — lower, 875 s
- Cc1nn(-c2ccc(N3CCOCC3)nn2)c(C)c1CCC(=O)NCCc1ccco1 — lower, 661 s
- O=C(CC1CCOCC1)N1CCN(C(=O)c2ccco2)CC1 — lower, 612 s
- COc1cc(NC(=O)c2csc(-c3ccc(C)n3C)n2)cc(OC)c1 — lower, 1130 s
- O=C(c1cn2cc(Cl)ccc2n1)N1CCN(c2ccccc2F)CC1 — lower, 833 s
- Cc1nc2cc(-c3noc(C(C)Oc4ccccc4)n3)ccc2n(C2CCCC2)c1=O (stereo not given) — higher, 1310 s
- O=C(Nc1ccc(CCc2nc3ccccc3n2-c2ccccc2)cc1)c1cnccn1 — lower, 694 s
- O=C(CCC1CCCN(S(=O)(=O)c2ccccc2F)C1)NCc1cccs1 (stereo not given) — lower, 908 s
- COCCCNC(=O)Cn1cccc(-c2nc(-c3ccc(F)cc3)no2)c1=O — lower, 702 s
- CCn1c(CNC(=O)C2CCC2)nc2c1CN(C(=O)Cc1ccc(Cl)cc1)CC2 — lower, 652 s
- CN(CC1CCOC1)C(=O)Nc1cccc(Br)c1 (stereo not given) — lower, 716 s
- CCOc1ccc(CNC(=O)Cc2nnc(-c3ccccn3)o2)cc1 — lower, 699 s
- CCN(C(=O)Cc1c(C(=O)O)c(C)cn1CC)c1cccc(Cl)c1 — lower, 839 s
- CCCN1C(=O)Cc2cc(C(=O)N3CCN(c4ccc(OC)cc4)CC3)ccc21 — lower, 748 s
- CN1C(=O)CCc2cc(NC(=O)c3ccnn3C)ccc21 — lower, 645 s
- COc1ccc(NC(=O)c2nnc(COCC(=O)NCCc3c[nH]c4ccc(Cl)cc34)s2)cc1 — lower, 894 s
- CCOC(=O)N1CCN(c2ccc(C(F)(F)F)cc2[N+](=O)[O-])CC1 — lower, 967 s
- Cc1nc(C)c(-c2ccc(=O)n(CCNC(=O)c3csc(-c4ccccc4)n3)n2)s1 — lower, 683 s
- COc1ccc(N2C(=O)CCS2(=O)=O)cc1S(=O)(=O)N1CCC(C(N)=O)CC1 — lower, 612 s
- CC1(C(=O)NCc2ccc(F)cc2)CCCN(C(=O)NCc2ccco2)C1 (stereo not given) — lower, 765 s
- O=C(Cn1cnc2c(sc3nc(-c4ccccc4)ccc32)c1=O)NCc1ccccc1 — lower, 953 s
- CCCCN(C)C(=O)C1CCCN(c2nnc(C)c3c(C)n(-c4ccc(Cl)cc4)nc23)C1 (stereo not given) — lower, 782 s
- Cc1ccc(Cn2nc3ccc(S(=O)(=O)N4CCc5ccccc5C4)cn3c2=O)cc1 — lower, 1050 s
- Cc1nn(C(C)C(=O)NCCN2CCCCCC2)c(=O)c2c(-n3cccc3)n(-c3ccccc3)nc12 (stereo not given) — lower, 736 s
- CCn1c(SC)nnc1-c1nn(C)c2c1CN(C(=O)c1cccn1C)CC2 — lower, 684 s
- CC(C)N1C(=O)Cc2ccccc2C1C(=O)NCc1cccs1 (stereo not given) — lower, 750 s
- CCN1c2ccccc2C(=O)NC12CCN(C(=O)Nc1ccc(C)c(C)c1)CC2 — lower, 860 s
- COc1cccc(NC(=O)N2CCC(CC(=O)N3CCCCC3)CC2)c1 — lower, 718 s
- COc1ccc(-c2cn3c(CC(=O)Nc4ccccc4C(F)(F)F)csc3n2)cc1OC — lower, 755 s
- O=S(=O)(NCCc1noc(-c2ccccc2)n1)c1ccc2c(c1)OCCO2 — lower, 883 s
- N#Cc1cccc(C(=O)N2CCC(c3cc(N)on3)CC2)c1 — lower, 641 s
- COc1ccc(C(=O)N2CCc3ccc(C(=O)Nc4ccc5c(c4)OCCO5)cc32)cc1 — lower, 868 s
- O=C(Nc1ccsc1-c1nnc(C2CC2)o1)c1cccc(Br)c1 — higher, 1390 s
- Cc1c(-c2ccc(-c3ccccc3F)cc2)nc2ccc(F)cc2c1C(=O)O — lower, 967 s
- O=C(CCNc1c(-c2cccc(F)c2)nc2cnccn12)NCc1ccccc1Cl — lower, 780 s
- O=C(C1CC1)N1CCc2sc(S(=O)(=O)NCc3cccc(Cl)c3)cc2C1 — lower, 923 s
- Cc1nc2cc3c(cc2n1CC(=O)NCc1ccc(F)cc1)OCCO3 — lower, 636 s
- Cc1ccc(CN2CCn3c(nn(C)c3=O)C2)nc1 — lower, 530 s
- CCc1nnc(-c2cc(NS(=O)(=O)CC)c(C)s2)o1 — lower, 810 s
- COc1ccccc1Nc1c(-c2ccccc2)nc2cnccn12 — lower, 875 s
- Cc1cc(-c2nnc(-c3ccco3)o2)c(C)n1CC(=O)Nc1ccc(F)cc1 — lower, 858 s
- CC(C(=O)N1CCN(C(=O)c2ccco2)CC1)n1c2ccccc2c2cnn(C)c(=O)c21 (stereo not given) — lower, 746 s
- Cc1ccc(-c2cn3cccnc3n2)cc1NC(=O)c1ccc(Br)cc1 — lower, 730 s
- Cc1ccccc1S(=O)(=O)N1CCN(c2nc3ccncc3n(CC(C)C)c2=O)CC1 — lower, 775 s
- O=C(NC1CCCCCC1)c1nc(Nc2ccc(F)cc2)c2ccccc2n1 — lower, 943 s
- O=C(NCc1cccs1)c1nc(-c2ccnc(N3CCCCC3)c2)no1 — lower, 742 s
- COc1ccc(-c2nnc(-c3cc(S(=O)(=O)NCC(=O)O)ccc3Cl)o2)cc1 — lower, 772 s
- CCOC(=O)c1ccc(N(C)c2csc(-c3ccccc3)n2)cc1 — higher, 1270 s
- CCn1cc(C(=O)Nc2ccc(C)c(F)c2)c(S(=O)(=O)N2CCSCC2)n1 — lower, 901 s
- Cc1cccc(Cn2c(=O)n(CCNC(=O)C3CCOC3)c3ncccc32)c1 (stereo not given) — lower, 698 s
- CCNC(=O)CCc1cc2ccccc2[nH]c1=O — lower, 623 s
- O=C(NCc1cccc(F)c1)N1C[C@@H]2C[C@H](NS(=O)(=O)c3ccccc3)[C@H]1C2 — lower, 782 s
- COC[C@@H]1CN(Cc2ccc3cc[nH]c3c2)C[C@H]1c1nc(C)no1 — lower, 631 s
- CCc1noc(CC2CCOC3(CCN(S(=O)(=O)c4c(C)cc(C)cc4C)CC3)C2)n1 (stereo not given) — lower, 1190 s
- CCc1nnc(C2CCN(C(=O)c3ccc(F)cc3F)CC2)s1 — lower, 770 s
- O=C(CN1CCN(C(=O)Nc2ccc(Cl)cc2)CC1=O)NC1CCCCC1 — lower, 724 s
- COc1cccc(N2CCN(S(=O)(=O)c3cc(-c4nnc(C5CCC5)o4)co3)CC2)c1 — lower, 1060 s
- CCc1ccc(NC(=O)N(C)CC2CCOC2)cc1 (stereo not given) — lower, 739 s
- CCOCCCNC(=O)C1CCN(C2=NS(=O)(=O)C(c3ccc(C)c(C)c3)=C2C)CC1 — lower, 786 s
- COc1cccc(NC(=O)Cn2nc(N3CCSCC3)c3ccccc3c2=O)c1 — lower, 908 s
- CCn1cnc(S(=O)(=O)N2CCCC(C(=O)NCCN3CCCCCC3)C2)c1 (stereo not given) — lower, 583 s
- O=C(c1cc2c(s1)CCCC2)N1CCN(c2nnc3ccccn23)CC1 — lower, 746 s
- C=CCOc1ccnc(-c2ccccc2)n1 — lower, 1110 s
- CCC(=O)N1CCc2c(C(=O)N3CCOCC3)cccc21 — lower, 630 s
- CN(C)C(=O)C1CCN(c2nc3ccc(-c4cccc(F)c4)nc3s2)CC1 — lower, 905 s
